Measured values: the supplement of paper PMC10307832

Assays:
Assay in all cases: relative viability (nuclei count vs DMSO), 5 days (fraction); higher = more cells survive
[1] = compound: Cc1cc(Nc2cc(N3CCN(C)CC3)nc(Sc3ccc(NC(=O)C4CC4)cc3)n2)n[nH]1 [Tozasertib] + CC(=O)c1c(C)c2cnc(Nc3ccc(N4CCNCC4)cn3)nc2n(C2CCCC2)c1=O [Palbociclib] (partner 0.5 µM)
In short: (§1)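 Cells from lung cancer lines were seeded into 1536-well plates and, one day later, dosed by pin tool. Treatments were either a single drug or a fixed dose of an anchor drug with five library-drug doses (not always all listed) in √10 steps. After 5 days, nuclei were stained in a one-step fixation (final 0.05% Triton X-100, 1% formaldehyde, 1 ug/ml Hoechst) and counted on 4× images, and relative viability is the treated-to-vehicle nuclei ratio, as the median of duplicate plates.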

[2] = compound: Cc1cc(Nc2cc(N3CCN(C)CC3)nc(Sc3ccc(NC(=O)C4CC4)cc3)n2)n[nH]1 [Tozasertib] + COc1cccc2cc(-c3nc([C@H]4CC[C@H](C(=O)O)CC4)n4ncnc(N)c34)[nH]c12 [OSI-027] (partner 0.5 µM)
In short: as §1

[3] = compound: Cc1cc(Nc2cc(N3CCN(C)CC3)nc(Sc3ccc(NC(=O)C4CC4)cc3)n2)n[nH]1 [Tozasertib] + NC(=O)Nc1cc(-c2cccc(F)c2)sc1C(=O)N[C@H]1CCCNC1 [AZD7762] (partner 0.2 µM)
In short: as §1

[4] = compound: Cc1cc(Nc2cc(N3CCN(C)CC3)nc(Sc3ccc(NC(=O)C4CC4)cc3)n2)n[nH]1 [Tozasertib] + COc1cc2c(Oc3ccc(NC(=O)C4(C(=O)Nc5ccc(F)cc5)CC4)cc3F)ccnc2cc1OCCCN1CCOCC1 [Foretinib] (partner 0.25 µM)
In short: as §1

[5] = compound: Cc1cc(Nc2cc(N3CCN(C)CC3)nc(Sc3ccc(NC(=O)C4CC4)cc3)n2)n[nH]1 [Tozasertib] + CS(=O)(=O)CCNCc1ccc(-c2ccc3ncnc(Nc4ccc(OCc5cccc(F)c5)c(Cl)c4)c3c2)o1 [Lapatinib] (partner 2 µM)
In short: as §1

Cell Line	relative viability ([1]; first compound 0.004 µM)	relative viability ([1]; first compound 0.01265 µM)	relative viability ([1]; first compound 0.04 µM)	relative viability ([1]; first compound 0.1265 µM)	relative viability ([2]; first compound 0.004 µM)	relative viability ([2]; first compound 0.01265 µM)	relative viability ([2]; first compound 0.04 µM)	relative viability ([2]; first compound 0.1265 µM)	relative viability ([3]; first compound 0.01265 µM)	relative viability ([3]; first compound 0.04 µM)	relative viability ([3]; first compound 0.1265 µM)	relative viability ([4]; first compound 0.004 µM)	relative viability ([4]; first compound 0.01265 µM)	relative viability ([4]; first compound 0.04 µM)	relative viability ([4]; first compound 0.1265 µM)	relative viability ([5]; first compound 0.004 µM)	relative viability ([5]; first compound 0.01265 µM)	relative viability ([5]; first compound 0.04 µM)	relative viability ([5]; first compound 0.1265 µM)	relative viability ([3]; first compound 0.004 µM)
NCI-H522	1.03	1.02	1.06	0.749	0.773	0.838	0.783	0.628	0.841	0.772	0.47	–	–	–	–	–	–	–	–	–
NCI-H2023	0.409	0.384	0.417	0.243	0.391	0.325	0.488	0.285	–	–	–	0.747	0.968	0.94	0.652	0.796	1.01	0.947	0.123	–
UMC-11	0.345	0.317	0.356	0.248	0.538	0.471	0.512	0.171	–	–	–	0.985	0.995	0.788	0.186	1.03	0.944	1.04	0.244	–
NCI-H520	0.231	0.228	0.231	0.173	0.356	0.26	0.254	0.234	–	–	–	0.872	0.602	0.923	0.608	0.868	0.816	0.775	0.214	–
HCC-44	1.03	0.954	1.02	0.874	0.605	0.485	0.606	0.341	0.994	0.929	0.845	–	–	–	–	1.06	1.02	1.06	0.862	1.05
NCI-H596	–	–	–	–	0.785	0.628	0.797	0.771	–	1.2	0.871	0.827	0.916	0.864	0.766	1.17	1.07	1.11	0.49	–
COR-L 105	0.353	0.393	0.419	0.356	0.698	0.68	0.731	0.343	–	–	–	1.03	0.993	1	0.803	0.358	0.365	0.335	0.262	–
LCLC-103H	0.481	0.45	0.502	0.52	0.504	–	0.503	0.388	0.842	0.846	0.732	0.81	0.78	0.713	0.416	–	–	–	–	0.724
ChaGo-K-1	0.902	0.881	0.949	0.477	0.584	0.511	0.562	0.31	0.851	0.859	0.576	0.939	0.874	0.813	0.249	–	–	–	–	0.902
NCI-H1650	0.328	0.287	0.365	0.207	0.689	0.602	0.621	0.302	–	–	–	1.26	1.28	1.1	0.879	0.914	0.712	0.879	0.168	–
SK-MES-1	0.317	0.32	0.364	0.38	0.518	0.633	0.647	0.531	–	–	–	0.934	0.814	0.884	1.03	0.477	0.468	0.514	0.438	–
SW 900	0.62	0.536	0.542	0.382	0.767	0.54	0.75	0.28	0.72	0.622	0.467	0.914	0.825	1.08	0.638	–	–	–	–	0.485
NCI-H1792	0.731	0.594	0.758	0.61	0.716	0.579	0.81	0.621	0.588	0.904	0.69	–	–	–	–	0.913	0.742	0.943	0.737	0.902
NCI-H1703	–	–	–	–	–	–	–	–	–	0.126	0.12	0.36	0.409	0.337	0.327	1.4	0.918	1.11	0.301	0.0927
NCI-H661	0.412	0.406	0.425	0.299	0.731	0.747	0.722	0.302	–	–	–	1.09	0.982	1.03	0.357	0.581	–	0.427	0.376	–
NCI-H1563	–	–	–	–	–	0.763	0.713	0.701	–	–	–	0.892	0.919	0.918	0.92	0.922	0.967	0.875	–	–
A549	–	–	–	–	–	–	–	–	–	–	–	–	0.823	0.871	0.251	1.04	0.859	0.835	0.0927	–
NCI-H2228	0.994	0.764	0.671	0.453	0.703	0.506	0.528	0.29	–	–	–	0.947	0.803	0.851	0.356	0.958	–	0.765	0.336	–
COR-L23	0.309	0.297	0.274	0.161	0.747	0.726	0.635	0.538	–	–	–	0.998	0.847	0.783	0.523	1.02	0.863	0.721	0.247	–
SK-LU-1	0.428	0.414	0.476	0.469	0.466	0.371	0.358	0.301	–	–	–	0.889	0.874	0.862	0.752	1.25	1.06	1.08	0.651	–
NCI-H2009	0.254	0.201	0.247	0.164	0.635	0.614	0.668	0.51	–	–	–	1.21	1.19	1.33	0.994	1.01	0.512	0.885	0.361	–
